Measurements: patent publication US9161936B2, “Laquinimod for treatment of GABA mediated disorders” (TEVA PHARMACEUTICAL INDUSTRIES, LTD., priority 2012, dated 2015)

What was measured:
[1] = test system: glutamate-mediated sEPSCs in control neurons; test: Bath application of LQ on corticostriatal slices of wild type mice, sEPSCs; assay type: cell-based, mouse
[2] = target: cannabinoid CB1 receptor (Mus musculus, UniProt P47746); test: Effect of HU210 on sIPSC frequency in striatal neurons (CB1 sensitivity of GABA synapses); conditions: for sIPSC frequency respect to pre-drug values: HU210 1 μM
Description: Recordings were performed between 25 and 35 dpi. Mice were killed by cervical dislocation under halothane anaesthesia, and corticostriatal coronal slices (200 μm) were prepared from fresh tissue blocks of the brain with the use of a vibratome (Centonze et al., 2007, 2009; Rossi et al., 2010a,b). A single slice was then transferred to a recording chamber and submerged in a continuously flowing artificial CSF (ACSF) (34° C., 2-3 ml/min) gassed with 95% O2-5% CO2. The composition of the control ACSF was (in mM): 126 NaCl, 2.5 KCl, 1.2 MgCl2, 1.2 NaH2PO4, 2.4 CaCl2, 11 Glucose, 25 NaHCO3. Recording pipettes were advanced towards individual striatal cells in the slice under positive pressure and visual control (WinVision 2000, Delta Sistemi, Italy) and, on contact, tight GΩ seals were made by applying negative pressure. The membrane patch was then ruptured by suction and membrane current and potential monitored using an Axopatch 1D patch clamp amplifier (Axon Instruments, Foster City, Calif., USA). Whole-cell access resistances measured in voltage clamp were in the range of 5-20 MΩ. Whole-cell patch clamp recordings were made with borosilicate glass pipettes (1.8 mm o.d.; 2-3 MΩ), in voltage-clamp mode, at the holding potential (HP) of −80 mV. […] Conversely, to detect spontaneous GABAAmediated inhibitory postsynaptic currents (sIPSCs), intraelectrode solution had the following composition (mM): CsCl (110), K+-gluconate (30), ethylene glycol-bis(β-aminoethyl ether)-N,N,N′,N′-tetra-acetic acid (EGTA; 1.1), HEPES (10), CaCl2 (0.1), Mg-ATP (4), Na-GTP (0.3). MK-801 (30 μM) and CNQX (10 μM) were added to the external solution to block, respectively, NMDA and nonNMDA glutamate receptors. Synaptic events were stored by using P-CLAMP (Axon Instruments) and analyzed off line on a personal computer with Mini Analysis 5.1 (Synaptosoft, Leonia, N.J., USA) software. The detection threshold of spontaneous IPSCs and EPSCs was set at twice the baseline noise. The fact that no false events would be identified was confirmed by visual inspection for each experiment. Offline analysis was performed on spontaneous and miniature synaptic events recorded during fixed time epochs (3-5 min, 3-6 samplings), sampled every 5 or 10 minutes. […] For kinetic analysis, events with peak amplitude between 10 and 50 pA were grouped, aligned by half-rise time, normalized by peak amplitude. In each cell, the events were averaged to obtain rise times, decay times, and half widths (Centonze et al., 2009; Rossi et al., 2010a,b). […]
For data presented as mean±SE, n indicates the number of cells. One to six cells per animal were recorded. […] Multiple comparisons were analysed by one-way ANOVA followed by Tukey's HSD test. Comparisons between two groups were analysed by paired or unpaired Student's t-test. […]

[3] = test system: GABAA-mediated sIPSCs in control neurons; test: Bath application of LQ on corticostriatal slices of wild type mice, sIPSCs; assay type: cell-based, mouse
[4] = mouse, in vivo, sc, 25 mg/kg
[5] = test system: glutamate-mediated sEPSCs in striatal neurons; test: Whole-cell patch clamp of sEPSCs in striatal neurons of LQ-treated EAE mice; assay type: in vivo, mouse; conditions: LQ-EAE mice 25 mg/kg
[6] = test system: EAE mice; test: EAE induction and disease evaluation, preventive daily s.c. LQ; assay type: in vivo, mouse; conditions: for mice that developed the disease (incidence): 0-26 d.p.i., 15 mice; for maximum disease score: score 0-5
Description: Female C57BL/6 mice at 6-8 weeks of age were purchased from Charles River (Calco, Milan, Italy) and housed in pathogen-free conditions. All procedures involving animals were performed according to the guidelines of the San Raffaele Scientific Institute Institutional Animal Care and Use Committee.
EAE was induced by immunization with 3 subcutaneous injection of 100 μl each, containing a total of 200 μg of myelin oligodendrocyte glycoprotein (MOG) peptide 35-55 (Multiple Peptide System) in incomplete Freund's adjuvant and 8 mg/ml of Mycobacterium tuberculosis (strain H37Ra; Difco). Pertussis toxin (Sigma) (500 ng) was injected on the day of the immunization and again two days later. Body weight and clinical score (0=healthy; 1=limp tail; 2=ataxia and/or paresis of hindlimbs; 3=paralysis of hindlimbs and/or paresis of forelimbs; 4=tetraparalysis; 5=moribund or death) were recorded daily.
EAE mice were treated once daily by subcutaneous (s.c.) injection of LQ (supplied by Teva Pharmaceutical Industries, Netanya, Israel) (thereafter referred as LQ-EAE). LQ was administered at different doses (from 1 to 25 mg/kg) starting the same day of immunization up to 26 days post immunization (d.p.i.). Sham treated EAE mice (thereafter referred as untreated-EAE) and healthy control mice (thereafter referred as HC) were used as controls. Statistical analysis was performed using the unpaired Student's t-test.

[7] = test system: GABAA-mediated sIPSCs in striatal neurons; test: Whole-cell patch clamp of sIPSCs in striatal neurons of LQ-treated EAE mice; assay type: in vivo, mouse; conditions: LQ-EAE mice 25 mg/kg, n=20
[8] = test system: aEAE model; conditions: shown in U.S. Pat. No. 6,077,851; cited from earlier work
[9] = background statement; cited from earlier work
[10] = test system: spinal cord of EAE mice; test: Histological evaluation of spinal cord of EAE mice; assay type: in vivo, mouse
Description: At least 5 mice per group were transcardially perfused through the left cardiac ventricle with saline, plus EDTA 0.5 M for 5-10 min followed by fixation with cold 4% paraformaldehyde (PFA) (Sigma, St Louis, Mo.) in 0.1 M phosphate buffer (pH 7.4). Subsequently, spinal cords and brains were carefully dissected out and post-fixed in 4% PFA for 3-4 h and processed for paraffin embedding. The quantification of neurological damage was performed on 5 μm paraffin CNS sections obtained from HC, LQ-EAE mice, and untreated-EAE mice. Three different staining were used to detect inflammatory infiltrates (H&E), demyelination (Luxol fast blue) and axonal damage (Bielshowsky). Immunohistochemistry for CD3 (pan-T cell marker, Serotec Ltd, Oxford, UK), and BS-I isolectin B4 (biotinilated from Sigma, St Louis, Mo.) was performed to investigate T cells and macrophages within the inflammatory cellular infiltrates, respectively. […] Neuropathological findings were quantified on an average of 18-20 complete cross-sections of spinal cord per mouse taken at 8 different levels of the spinal cord. The number of perivascular inflammatory infiltrates were calculated and expressed as the numbers of inflammatory infiltrates per mm^2, demyelinated areas and axonal loss were expressed as percentage of damaged area per mm2. The number of T cells and macrophages lining within the subarachnoid space or infiltrating the CNS parenchyma was calculated and expressed as the number of cells per mm2. An Olympus microscope for the acquisitions of pictures was used. Statistical analysis was performed using the unpaired Student's t-test.

[11] = systemically administered (Brück et al., 2011); cited from earlier work
[12] = LQ-EAE mice vs untreated-EAE mice
[13] = s.c. LQ vs untreated-EAE mice, spinal cord sections
[14] = LQ 1 μM bath application, control neurons
[15] = LQ 1 μM, 12 minutes, control neurons

cannabinoid CB1 receptor, sequence (P47746 whole entry): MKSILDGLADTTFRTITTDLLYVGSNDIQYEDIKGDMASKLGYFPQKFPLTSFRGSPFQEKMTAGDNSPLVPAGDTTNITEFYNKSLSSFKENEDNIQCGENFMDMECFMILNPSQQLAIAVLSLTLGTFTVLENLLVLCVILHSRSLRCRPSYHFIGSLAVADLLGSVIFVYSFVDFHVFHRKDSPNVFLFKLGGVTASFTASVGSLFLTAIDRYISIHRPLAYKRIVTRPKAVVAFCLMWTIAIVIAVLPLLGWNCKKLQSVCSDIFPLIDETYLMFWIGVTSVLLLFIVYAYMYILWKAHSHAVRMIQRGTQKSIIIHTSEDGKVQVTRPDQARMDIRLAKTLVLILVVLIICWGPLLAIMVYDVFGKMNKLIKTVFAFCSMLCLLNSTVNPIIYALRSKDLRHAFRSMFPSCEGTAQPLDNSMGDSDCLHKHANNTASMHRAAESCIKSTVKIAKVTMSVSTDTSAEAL

SMILES: N#Cc1cc2[nH]c(=O)c(=O)[nH]c2cc1[N+](=O)[O-] [CNQX, reference compound]
- blockade of sEPSCs recorded in the presence of LQ ([1]; CNQX 10 μM, n=5): fully blocked

SMILES: CCCCCCC(C)(C)c1cc(O)c2c(c1)OC(C)(C)[C@@H]1CC=C(CO)C[C@@H]21 [HU210]
- sIPSC frequency respect to pre-drug values ([2]; 10 min, control slices, n=8): 76±3%
- sIPSC frequency respect to pre-drug values ([2]; striatal neurons from LQ-EAE mice (25 mg/kg), n=10): 75±3%
- sIPSC frequency respect to pre-drug values ([2]; striatal neurons from untreated EAE mice, n=10): 101±3%

SMILES: CCN(C(=O)c1c(O)c2c(Cl)cccc2n(C)c1=O)c1ccccc1 [LQ, N-ethyl-N-phenyl-1,2-dihydro-4-hydroxy-5-chloro-1-methyl-2-oxoquinoline-3-carboxamide]
- sIPSC amplitude ([3]; LQ 1 μM bath application): failed to alter
- sIPSC frequency ([3]; LQ 1 μM bath application): failed to alter
- sIPSC decay time compared to pre-drug values ([3]; LQ 1 μM, 12 minutes): 98±3%
- sIPSC rise time compared to pre-drug values ([3]; LQ 1 μM, 12 minutes): 101±2%
- sIPSC frequency ([3]; LQ 10-30 μM bath application, n=8, p<0.01): significantly increased
- EC50 ([3]; Mus musculus, Neuron, dose-response curve, bath application, read-out: EC50 of LQ-induced increase of sIPSC frequency): 4.3 µM
- CNS concentration [4]: 0.3 to 1 µM
- sEPSC decay time ([5]; 25-35 dpi, n=20, untreated-EAE 5.4±0.4, HC 3.4±0.2): 4.2 ± 0.3 ms
- sEPSC frequency ([5]; n=20, untreated-EAE 4.0±0.2, HC 2.7±0.2): 3.4±0.4 Hz
- sEPSC half-width ([5]; n=20, untreated-EAE 6.4±0.4, HC 4.0±0.3): 5.0 ± 0.3 ms
- sEPSC rise time ([5]; untreated-EAE 1.05±0.1, HC 1.03±0.1): 0.98 ± 0.1 ms
- sEPSC amplitude ([5]; untreated-EAE 11.1±0.8, HC 12.0±1.0): 12.2±1.1 pA
- mice that developed the disease (incidence) ([6]; 1 mg/kg LQ s.c. daily, untreated-EAE 15/15): 86.6%
- maximum disease score ([6]; 1 mg/kg LQ s.c. daily, sham 3.5): 3.5
- cumulative score (0-26 dpi) ([6]; 1 mg/kg LQ s.c. daily, untreated EAE 27.5): 27.3
- mean disease onset ([6]; 1 mg/kg LQ s.c. daily, untreated-EAE 11.9 (±2.33)): 11.9 (±2.47)
- cumulative score (0-26 dpi) ([6]; 5 mg/kg LQ s.c. daily): 21.5
- mean disease onset ([6]; 5 mg/kg LQ s.c. daily): 14.6 (±4.29)
- mice that developed the disease (incidence) ([6]; 5 mg/kg LQ s.c. daily): 80%
- maximum disease score ([6]; 5 mg/kg LQ s.c. daily): 3
- cumulative score (0-26 dpi) ([6]; 25 mg/kg LQ s.c. daily): 21.3
- mice that developed the disease (incidence) ([6]; 25 mg/kg LQ s.c. daily): 40%
- maximum disease score ([6]; 25 mg/kg LQ s.c. daily): 1.5
- suppression of EAE ([6]; preventive treatment 0-26 dpi, daily s.c. 1-25 mg/kg, dose-dependent): significantly suppresses
- mean disease onset ([6]; printed "the mg/kg LQ-EAE mice" (dose figure missing), s.c. daily): 13.5 (±2.43)
- sIPSC frequency ([7]; untreated-EAE 0.8±0.1, HC 1.7±0.1): 2.0±0.2 Hz
- sIPSC amplitude ([7]; untreated-EAE 20±1.5, HC 32±1.3): 29±1.1 pA
- effect of CB1 receptor agonist HU210 on sIPSCs after LQ treatment ([2]; prophylactic LQ 25 mg/kg in EAE mice): completely restored
- efficacy in the acute experimental autoimmune encephalomyelitis (aEAE) model [8]: effective
- oral bioavailability [9]: high
- CD3+ T cells [10, 12]: significant reduction
- IB4+ macrophages [10, 12]: significant reduction
- axonal damage (percentage over total section area) [10, 13]: significantly reduces
- inflammation (perivascular infiltrates per section) [10, 13]: significantly reduces
- myelin loss (demyelination, percentage over total section area) [10, 13]: significantly reduces
- sEPSC amplitude [1, 14]: failed to alter
- sEPSC frequency [1, 14]: failed to alter
- sEPSC decay time compared to pre-drug values [1, 15]: 101±2%
- sEPSC rise time compared to pre-drug values [1, 15]: 99±1%
- sEPSC amplitude ([1]; LQ 10-30 μM bath application, control neurons, n=10, p<0.01): reducing
- EC50 ([1]; Mus musculus, Neuron, dose-response curve, bath application, control neurons, read-out: EC50 of LQ-induced decrease of sEPSC amplitude): 4.5 µM
- sEPSC frequency respect to pre-drug values ([1]; highest concentration of LQ, n=7, p<0.05): 83±2.7%
- crossing of the blood brain barrier [11]: able to cross the blood brain barrier
